One series relates to Plasma. The experiment in a line: Drug metabolism in rat plasma assessed as cortexolone-21-propionate formation after up to 8 hrs by HPLC analysis in presence of 50 ug/ml dichlofvos. The class given is ADME, cell-free.
Series [1] has as its system Syrian golden hamster. The experiment in a line: Antiandrogenic activity in female Syrian golden hamsters assessed as inhibition of testosterone propionate-induced flank organ enlargement at 400 ug per animal, topically relative to untreated control. The class given is functional, Mesocricetus auratus.
The nature of series [2]: Drug metabolism in rat plasma assessed as compound remaining after 4 hrs by HPLC analysis. As to conditions: read-out: Drug metabolism. The class given is ADME, cell-free.
The nature of series [3]: Drug metabolism in rat plasma assessed as compound remaining after 30 mins by HPLC analysis. The class given is ADME, cell-free. As to conditions: read-out: Drug metabolism.
A short description of series [4]: Drug metabolism in rat plasma assessed as compound remaining after 8 hrs by HPLC analysis. As to conditions: read-out: Drug metabolism. The class given is ADME, cell-free.
The test system of series [5] is Rattus norvegicus. The experiment in a line: Glucocorticoid activity in male castrated Wistar rat assessed as reduction in adrenal weight at 100 mg/kg, sc. The class given is functional, organism-based.
In series [6] the target is Steroid 5-alpha-reductase (Homo sapiens) (UniProt P18405+P31213+Q9H8P0). The experiment in a line: Inhibition of 5alpha-reductase in human epidermis assessed as inhibition of [14C]testosterone to DHT after 24 hrs. The class given is protein assay.
Sequence of Steroid 5-alpha-reductase (Homo sapiens) (P18405 whole entry, looked up): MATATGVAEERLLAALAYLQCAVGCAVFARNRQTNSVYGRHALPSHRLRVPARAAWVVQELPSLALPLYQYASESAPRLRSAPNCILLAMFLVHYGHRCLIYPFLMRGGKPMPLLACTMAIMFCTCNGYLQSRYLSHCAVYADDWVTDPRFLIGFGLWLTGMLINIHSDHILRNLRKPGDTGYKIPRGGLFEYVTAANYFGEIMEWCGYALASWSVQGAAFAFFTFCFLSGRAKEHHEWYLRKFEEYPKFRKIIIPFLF
Sequence of Steroid 5-alpha-reductase (Homo sapiens) (P31213 whole entry, looked up): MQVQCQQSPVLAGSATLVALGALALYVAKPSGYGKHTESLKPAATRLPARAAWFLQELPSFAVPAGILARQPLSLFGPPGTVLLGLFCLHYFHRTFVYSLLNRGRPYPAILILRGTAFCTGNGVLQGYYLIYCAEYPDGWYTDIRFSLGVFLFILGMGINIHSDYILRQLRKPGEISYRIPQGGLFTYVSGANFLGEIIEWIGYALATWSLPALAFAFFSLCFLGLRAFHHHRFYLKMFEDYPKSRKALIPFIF
Sequence of Steroid 5-alpha-reductase (Homo sapiens) (Q9H8P0 whole entry, looked up): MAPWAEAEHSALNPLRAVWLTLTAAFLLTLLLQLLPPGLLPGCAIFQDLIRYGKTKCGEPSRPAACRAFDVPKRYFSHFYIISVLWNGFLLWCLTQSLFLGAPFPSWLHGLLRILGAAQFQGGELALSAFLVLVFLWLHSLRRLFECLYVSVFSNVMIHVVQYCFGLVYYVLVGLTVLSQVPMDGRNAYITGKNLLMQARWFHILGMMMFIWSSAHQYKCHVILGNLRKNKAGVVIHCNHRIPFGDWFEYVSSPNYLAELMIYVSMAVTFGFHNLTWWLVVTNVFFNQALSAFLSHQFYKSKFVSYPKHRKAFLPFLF
Series [7] can be described thus: Drug metabolism in human plasma assessed as compound remaining after 0 mins by HPLC analysis. Conditions: read-out: Drug metabolism. The class given is ADME, cell-free.
Series [8] has as its system Rattus norvegicus. The experiment in a line: Antiandrogenic activity in sc dosed male castrated Wistar rat assessed as inhibition of testosterone propionate-induced ventral prostate gland organ effect. The class given is functional, organism-based.
The nature of series [9]: Drug metabolism in rat plasma assessed as compound remaining after 5 mins by HPLC analysis. The class given is ADME, cell-free. As to conditions: read-out: Drug metabolism.
Series [10] is described as follows: Drug metabolism in rat skin homogenate assessed as compound remaining after 2 hrs by HPLC analysis. The class given is ADME, tissue-based, Zone of skin. Conditions: read-out: Drug metabolism.
A short description of series [11]: Drug metabolism in human plasma assessed as compound remaining after 6 hrs by HPLC analysis. The class given is ADME, cell-free. Conditions: read-out: Drug metabolism.
The nature of series [12]: Drug metabolism in rat skin homogenate assessed as compound remaining after 24 hrs by HPLC analysis. The class given is ADME, tissue-based, Zone of skin. Conditions: read-out: Drug metabolism.
Series [13] is described as follows: Drug metabolism in human plasma assessed as compound remaining after 1 hr by HPLC analysis. The class given is ADME, cell-free. Conditions: read-out: Drug metabolism.
Series [14] relates to Rattus norvegicus. The experiment in a line: Glucocorticoid activity in male castrated Wistar rat assessed as reduction in thymus weight at 100 mg/kg, sc. The class given is functional, organism-based.
Series [15] relates to Rattus norvegicus. The experiment in a line: Antiandrogenic activity in sc dosed male castrated Wistar rat assessed as inhibition of testosterone propionate-induced preputial gland organ effect. The class given is functional, organism-based.
The test system of series [16] is Rattus norvegicus. The experiment in a line: Antiandrogenic activity in sc dosed male castrated Wistar rat assessed as inhibition of testosterone propionate-induced seminal vesicles gland organ effect. The class given is functional, organism-based.
The nature of series [17]: Drug metabolism in rat skin homogenate assessed as compound remaining after 1 hr by HPLC analysis. The class given is ADME, tissue-based, Zone of skin. Conditions: read-out: Drug metabolism.
Series [18] can be described thus: Drug metabolism in rat skin homogenate assessed as compound remaining after 15 mins by HPLC analysis. The class given is ADME, tissue-based, Zone of skin. Conditions: read-out: Drug metabolism.
Series [19] in a line: Drug metabolism in rat plasma assessed as compound remaining after 2 hrs by HPLC analysis. The class given is ADME, cell-free. As to conditions: read-out: Drug metabolism.
A short description of series [20]: Drug metabolism in rat plasma assessed as compound remaining after 0 mins by HPLC analysis. The class given is ADME, cell-free. Conditions: read-out: Drug metabolism.
In the next series the target is T1, Androgen receptor (Homo sapiens, UniProt P10275).
T1 sequence (P10275 whole entry): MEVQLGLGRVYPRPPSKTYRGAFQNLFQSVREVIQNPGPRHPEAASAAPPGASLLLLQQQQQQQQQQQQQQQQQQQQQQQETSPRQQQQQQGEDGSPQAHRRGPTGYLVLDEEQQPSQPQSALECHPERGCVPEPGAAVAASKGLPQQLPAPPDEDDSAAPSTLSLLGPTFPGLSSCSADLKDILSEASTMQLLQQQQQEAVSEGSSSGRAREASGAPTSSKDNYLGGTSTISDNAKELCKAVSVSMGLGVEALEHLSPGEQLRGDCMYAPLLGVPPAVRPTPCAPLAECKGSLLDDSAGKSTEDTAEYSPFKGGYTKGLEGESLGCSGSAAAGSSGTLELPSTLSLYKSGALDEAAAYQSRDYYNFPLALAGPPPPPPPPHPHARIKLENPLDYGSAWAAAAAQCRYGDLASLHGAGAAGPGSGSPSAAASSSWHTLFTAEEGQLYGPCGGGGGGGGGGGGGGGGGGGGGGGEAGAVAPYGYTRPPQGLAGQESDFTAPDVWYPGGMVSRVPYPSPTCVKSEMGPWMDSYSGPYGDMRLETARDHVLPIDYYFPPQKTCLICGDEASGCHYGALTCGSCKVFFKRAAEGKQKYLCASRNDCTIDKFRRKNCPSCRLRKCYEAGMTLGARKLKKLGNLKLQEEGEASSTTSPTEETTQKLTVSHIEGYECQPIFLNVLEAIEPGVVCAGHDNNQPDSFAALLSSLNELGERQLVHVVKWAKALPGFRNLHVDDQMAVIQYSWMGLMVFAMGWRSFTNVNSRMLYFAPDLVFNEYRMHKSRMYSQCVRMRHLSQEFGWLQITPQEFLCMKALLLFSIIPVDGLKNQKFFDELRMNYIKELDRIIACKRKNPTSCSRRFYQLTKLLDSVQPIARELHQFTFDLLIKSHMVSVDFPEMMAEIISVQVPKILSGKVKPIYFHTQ
The experiment in a line: Displacement of [3H]methyltrienolone from androgen receptor in human prostate cancer cells. The class given is cell-based, Cancer cell lines. Background: Displacement assays read how much labelled ligand stays bound in the presence of the test substance.

Series [21] in a line: Drug metabolism in rat skin homogenate assessed as compound remaining after 8 hrs by HPLC analysis. The class given is ADME, tissue-based, Zone of skin. Conditions: read-out: Drug metabolism.
The nature of series [22]: Drug metabolism in rat skin homogenate assessed as compound remaining after 30 mins by HPLC analysis. The class given is ADME, tissue-based, Zone of skin. Conditions: read-out: Drug metabolism.
The nature of series [23]: Drug metabolism in human plasma assessed as compound remaining after 4 hrs by HPLC analysis. The class given is ADME, cell-free. Conditions: read-out: Drug metabolism.
Series [24] in a line: Drug metabolism in rat skin homogenate assessed as compound remaining after 16 hrs by HPLC analysis. As to conditions: read-out: Drug metabolism. The class given is ADME, tissue-based, Zone of skin.
The test system of series [25] is Syrian golden hamster. The experiment in a line: Antiandrogenic activity in female Syrian golden hamsters assessed as inhibition of testosterone propionate-induced flank organ enlargement at 200 ug per animal, topically relative to untreated control. The class given is functional, Mesocricetus auratus.
A short description of series [26]: Drug metabolism in rat skin homogenate assessed as compound remaining after 0 mins by HPLC analysis. The class given is ADME, tissue-based, Zone of skin. As to conditions: read-out: Drug metabolism.
A short description of series [27]: Drug metabolism in rat skin homogenate assessed as compound remaining after 5 mins by HPLC analysis. The class given is ADME, tissue-based, Zone of skin. As to conditions: read-out: Drug metabolism.
Series [28] is described as follows: Drug metabolism in rat skin homogenate assessed as compound remaining after 4 hrs by HPLC analysis. The class given is ADME, tissue-based, Zone of skin. Conditions: read-out: Drug metabolism.
A short description of series [29]: Drug metabolism in human plasma assessed as compound remaining after 30 mins by HPLC analysis. The class given is ADME, cell-free. Conditions: read-out: Drug metabolism.
A short description of series [30]: Drug metabolism in human plasma assessed as compound remaining after 2 hrs by HPLC analysis. Conditions: read-out: Drug metabolism. The class given is ADME, cell-free.
Series [31] can be described thus: Drug metabolism in rat plasma assessed as compound remaining after 15 mins by HPLC analysis. As to conditions: read-out: Drug metabolism. The class given is ADME, cell-free.
The test system of series [32] is Syrian golden hamster. The experiment in a line: Antiandrogenic activity in female Syrian golden hamsters assessed as inhibition of testosterone propionate-induced flank organ enlargement at 100 ug per animal, topically relative to untreated control. The class given is functional, Mesocricetus auratus.
Series [33] in a line: Drug metabolism in rat plasma assessed as compound remaining after 1 hr by HPLC analysis. Conditions: read-out: Drug metabolism. The class given is ADME, cell-free.

Active and inactive are the calls of the source. The rule behind the calls is not given here.

Turning to `CCC(=O)OCC(=O)[C@@]1(O)CC[C@H]2[C@@H]3CCC4=CC(=O)CC[C@]4(C)[C@H]3CC[C@@]21C`, in the series on Plasma, the Drug metabolism result is “metabolite_detected”. Moreover, the “inhibition (INH)” value in the series with Syrian golden hamster [1] amounted to 29%.
On to `CCC(=O)OCC(=O)[C@@]1(OC(=O)CC)CC[C@H]2[C@@H]3CCC4=CC(=O)CC[C@]4(C)[C@H]3CC[C@@]21C`, for which the “inhibition (INH)” value in the series with Syrian golden hamster [1] is 57%.
For `CCCC(=O)O[C@]1(C(=O)CO)CC[C@H]2[C@@H]3CCC4=CC(=O)CC[C@]4(C)C3=CC[C@@]21C`, the “inhibition (INH)” value in the series with Syrian golden hamster [1] is 85%.
The term IC50 denotes the concentration that gives 50% inhibition. Low readings indicate greater potency, high ones weaker potency. The Ki is the dissociation constant of the complex between target and ligand, obtained from inhibition or displacement. A lower Ki goes with higher affinity. Turning to `CCC(=O)O[C@]1(C(=O)CO)CC[C@H]2[C@@H]3CCC4=CC(=O)CC[C@]4(C)[C@H]3CC[C@@]21C` [CLASCOTERONE], the values for the remaining at 4 h in series [2], in series [23] and in series [28] were 20%, 30.3% and 59.5%, respectively. The remaining at 0.5 h in [3] turned out to be 80%; in series [22] it was 98.5%; in series [29], 93.2%. Also, the figures for the remaining at 8 h in series [4] and in series [21] were 0% and 49.5%, respectively. Besides, the inhibition result with Rattus norvegicus [5] and in the series on Rattus norvegicus [14] was “Active” throughout. In addition, the inhibition entry in [6] is “inactive”. The remaining at 0 h is 99.6% in series [7], 100% in series [20] and 99% in series [26]. Moreover, the result in the series on Rattus norvegicus [8], with Rattus norvegicus [15] and in the series with Rattus norvegicus [16] was inactive. Also, the remaining at 5 min in series [9] was determined as 90%; in series [27], 99%. In addition, the remaining at 2 h was found to be 69.5% in [10], 50% in [19] and 67.2% in series [30]. In series [11], the remaining at 6 h was determined as 11.3%. Moreover, the remaining at 24 h in series [12] was 44.8%. The results for the remaining at 1 h in series [13], in [17] and in [33] were 85.2%, 89.5% and 60%, respectively. The remaining at 0.25 h in [18] is 99%; in [31] it was 90%. The IC50 at Androgen receptor turned out to be 50 nM. Also, the Ki at Androgen receptor was found to be 40 nM. The remaining at 16 h in series [24] was found to be 44.8%. Moreover, the figures for the “inhibition (INH)” value in the series with Syrian golden hamster [25], with Syrian golden hamster [32] and in the series with Syrian golden hamster [1] were 78%, 40% and 84%, respectively.
As to `C[C@]12CCC(=O)C=C1CC[C@@H]1[C@@H]2CC[C@@]2(C)[C@H]1CC[C@]2(O)C(=O)CO` [CORTODOXONE], the “inhibition (INH)” value in the series on Syrian golden hamster [1] is 0%.
On to `CC(=O)O[C@]1(C(C)=O)CC[C@H]2[C@@H]3C=C(Cl)C4=CC(=O)[C@@H]5C[C@@H]5[C@]4(C)[C@H]3CC[C@@]21C` [CYPROTERONE ACETATE], for which the “inhibition (INH)” value in the series on Syrian golden hamster [1] stood at 93%.
In the case of `CC(C)(C)NC(=O)[C@H]1CC[C@H]2[C@@H]3CC[C@H]4NC(=O)C=C[C@]4(C)[C@H]3CC[C@]12C` [FINASTERIDE], in the series with Syrian golden hamster [1], the “inhibition (INH)” value is 71%.

The values are drawn from ChEMBL document CHEMBL3588838, “A full conformational characterization of antiandrogen cortexolone-17-propionate and related compounds through theoretical calculations and nuclear magnetic resonance spectroscopy” (Medchemcomm, 2014).
